Results from patent US4647408A, “Carbapenem-type antibiotics” (Shionogi & Co., Ltd., priority 1983, dated 1987).
Converted amounts (≈) assume the structure as drawn.

Assays:
[1] = test system: Klebsiella pneumoniae SRL-1; experiment: Antimicrobial activity, agar dilution method; type: cell-based; conditions: SRL1, inoculum 10^6 cells/ml, sensitivity disc agar, 37° C. overnight, read-out: Minimum Inhibitory Concentration
Procedure: (§1) (1) Antimicrobial Activity:
(§2) Test microorganism Concentration (μg/ml)
(§3) Determined by agar dilution method: Inoculum size 10^6 cells/ml,
(§4) Cultivation on a sensitivitydisc agar medium at 37° C. overnight.

[2] = test system: Escherichia coli NIHJ JC-2; experiment: Antimicrobial activity, agar dilution method; type: cell-based; conditions: NIHJJC2, inoculum 10^6 cells/ml, sensitivity disc agar, 37° C. overnight, read-out: Minimum Inhibitory Concentration
Procedure: as §1, §2, §3, §4

[3] = test system: Pseudomonas aeruginosa ATCC 25619; experiment: Antimicrobial activity, agar dilution method; type: cell-based; conditions: ATCC25619, inoculum 10^6 cells/ml, sensitivity disc agar, 37° C. overnight, read-out: Minimum Inhibitory Concentration
Procedure: as §1, §2, §3, §4

[4] = test system: Staphylococcus aureus 209P JC-1; experiment: Antimicrobial activity, agar dilution method; type: cell-based; conditions: inoculum 10^6 cells/ml, sensitivity disc agar, 37° C. overnight, read-out: Minimum Inhibitory Concentration
Procedure: as §1, §2, §3, §4

[5] = test system: Streptococcus pneumoniae I; experiment: Antimicrobial activity, agar dilution method; type: cell-based; conditions: inoculum 10^6 cells/ml, sensitivity disc agar, 37° C. overnight, read-out: Minimum Inhibitory Concentration
Procedure: as §1, §2, §3, §4

[6] = test system: Enterobacter cloacae 233; experiment: Antimicrobial activity, agar dilution method; type: cell-based; conditions: inoculum 10^6 cells/ml, sensitivity disc agar, 37° C. overnight, read-out: Minimum Inhibitory Concentration
Procedure: as §1, §2, §3, §4

[7] = test system: Proteus mirabilis PR-4; experiment: Antimicrobial activity, agar dilution method; type: cell-based; conditions: PR4, inoculum 10^6 cells/ml, sensitivity disc agar, 37° C. overnight, read-out: Minimum Inhibitory Concentration
Procedure: as §1, §2, §3, §4

[8] = test system: Klebsiella sp. 363(R); experiment: Antimicrobial activity, agar dilution method; type: cell-based; conditions: inoculum 10^6 cells/ml, sensitivity disc agar, 37° C. overnight, read-out: Minimum Inhibitory Concentration
Procedure: as §1, §2, §3, §4

[9] = test system: β-lactamase; experiment: β-lactamase inhibitory activity (general statement); type: biochemical; conditions: statement in words
Description: (§5) Results of the tests on the antimicrobial activities and β-lactamase inhibitory activities are summarized as follows.
(§6) The β-lactamase inhibitory activity is expressed as a minimum concentration (μg/ml) of the test compound which is required to inhibit the hydrolysis of the substrate by β-lactamase. The supernatant, which has been obtained by means of breaking the washed cells of the β-lactamase-producing microorganisms in a buffer with ultrasonic waves and then centrifuging the consequent cell-free extract, is employed as a standard β-lactamase.
(§7) A test compound is successively diluted with a buffer (pH 7.0) by a two-fold dilution method, the standard β-lactamase in added to each of the diluted solutions, then the mixture is allowed to stand for 10 minutes, and an indicator is added therein. The minimum inhibitory concentration at which no color is developed after observation for 20 minutes, is determined.

[10] = target: T1, β-lactamase (cephalosporinase type) of Enterobacter cloacae 92 (Enterobacter cloacae, UniProt P05364); experiment: β-lactamase inhibitory activity, inhibition of hydrolysis of the substrate; type: biochemical; conditions: β-lactamase of Enterobacter cloacae 92, cephalosporinase type; pH 7.0, 10 min preincubation, read after 20 min
T1 construct: supernatant of sonicated, washed cells of the producing strain (crude cell-free extract)
Description: (§8) (2) Test on the β-lactamase inhibitory activity:
as §6, §7
*^1 Producing cephalosporinasetype lactamase

[11] = test system: β-lactamase (penicillinase type) of Klebsiella sp. 363; experiment: as above; type: biochemical; conditions: β-lactamase of Klebsiella sp. 363, penicillinase type; pH 7.0, 10 min preincubation, read after 20 min
Description: as §8, §6, §7
*^2 Producing penicillinasetype lactamase

[12] = test system: Gram-positive and Gram-negative microorganisms; experiment: Antimicrobial activity (general statement); type: cell-based; conditions: statement in words
Description: as §5

T1 sequence (P05364 21-381): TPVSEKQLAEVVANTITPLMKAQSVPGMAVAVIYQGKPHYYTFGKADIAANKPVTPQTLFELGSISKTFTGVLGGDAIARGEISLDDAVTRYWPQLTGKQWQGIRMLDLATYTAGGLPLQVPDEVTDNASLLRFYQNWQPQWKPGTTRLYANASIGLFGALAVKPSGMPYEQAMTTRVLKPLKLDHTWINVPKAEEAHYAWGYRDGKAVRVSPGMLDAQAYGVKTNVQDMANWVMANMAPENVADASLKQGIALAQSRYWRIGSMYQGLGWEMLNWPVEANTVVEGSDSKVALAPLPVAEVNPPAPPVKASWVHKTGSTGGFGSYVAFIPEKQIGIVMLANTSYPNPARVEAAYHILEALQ

Row | SMILES | MIC [1] [µg/mL] | MIC [2] [µg/mL] | MIC [3] [µg/mL] | MIC [4] [µg/mL] | MIC [5] [µg/mL] | MIC [6] [µg/mL] | MIC [7] [µg/mL] | MIC [8] [µg/mL] | β-lactamase inhibitory activities [9] | Minimum Inhibitory Concentration (inhibition of substrate hydrolysis by β-lactamase) [10] [µg/mL] | Minimum Inhibitory Concentration (inhibition of substrate hydrolysis by β-lactamase) [11] [µg/mL] | antimicrobial activities [12]
1 | C[C@H](OS(=O)(=O)O)[C@@H]1C(=O)N2C(C(=O)O)=C(S(=O)O)C[C@H]12 [PA-41746-A2] | 1.56 (≈ 4.57 µM) | 1.56 (≈ 4.57 µM) | > 100 | 12.5 (≈ 36.6 µM) | 1.56 (≈ 4.57 µM) | 6.25 (≈ 18.3 µM) | 3.13 (≈ 9.17 µM) | 1.56 (≈ 4.57 µM) | excellent β-lactamase inhibitory activities | 0.008 | 1.0 | antimicrobial activities against Gram-positive and Gram-negative microorganisms
2 | C[C@H](OS(=O)(=O)O)[C@@H]1C(=O)N2C(C(=O)O)=C([S@+]([O-])CCO)C[C@H]12 [PA-41746-E] | – | – | – | – | – | – | – | – | excellent β-lactamase inhibitory activities | 0.016 | 0.008 | antimicrobial activities against Gram-positive and Gram-negative microorganisms
3 | CC(=O)NCC[S@@+]([O-])C1=C(C(=O)O)N2C(=O)[C@@H]([C@H](C)OS(=O)(=O)O)[C@H]2C1 [PA-41746-F] | – | – | – | – | – | – | – | – | excellent β-lactamase inhibitory activities | 0.002 | 0.002 | antimicrobial activities against Gram-positive and Gram-negative microorganisms
